Common to all, as to test: inhibition of tumour cell growth, NCI panel, 48 h
The test system of test [1] is UACC-257.
Test [2] deals with LOX IMVI.
Test [3] concerns A549.
The subject of test [4] is MDA-MB-231.
Test [5] relates to NCI-H226.
Test [6] concerns SW-620.
Test [7] deals with KM12.
For test [8], the system named is CAKI-1.
Test [9] relates to HCT-116.
The test system of test [10] is MDA-MB-435.
Test [11] deals with OVCAR-5.
Test [12] concerns A498.
Test [13] concerns SNB-19.
The subject of test [14] is SK-MEL-2.
The test system of test [15] is NCI-H460.
In test [16] the test system is SN12C.
Test [17] relates to MDA-N.
Test [18] concerns MCF7.
Test [19] concerns HCC 2998.
Test [20] relates to MOLT-4.

SMILES strings stand for the structures.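 Tested at 5 concentrations; 48 h exposure; 96-well plates; endpoints linearly interpolated, else capped at highest concentration. GI50 is the concentration that inhibits growth by half.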 Activity calls are given as the source filed them. Cut-off read from the data, not from the text of the source: active = GI50 up to about 1.1 µM and inactive = higher. Some results are limits rather than exact numbers.

Regarding `Oc1ccc2ccccc2c1/C=C/c1ccc2c(Br)cc(Br)c(O)c2n1`, the GI50 in [1] was 8.49 µM (inactive); in test [2] it was 2.6 µM (inactive); in test [3] it was 4.74 µM (inactive); in [4] it was 5.58 µM (inactive); in test [5], 5.02 µM (inactive); in test [6], 4.9 µM (inactive). The GI50 in test [7] was 5.4 µM (inactive); in test [8], 11 µM (inactive); in test [9], 2.96 µM (inactive); in test [10], 11.8 µM (inactive); in test [11] it was 7.76 µM (inactive); in test [12] it was 5.64 µM (inactive). Further, the GI50 in test [13] was 6.73 µM (inactive); in [14] it was 8.34 µM (inactive); in [15], 1.75 µM (inactive); in [16], 5.04 µM (inactive); in [17], 9.71 µM (inactive); in [18], 1.24 µM (inactive). Besides, the GI50 was 6.97 µM (inactive) in [19] and 1.59 µM (inactive) in test [20].
For `Cc1c(N)nc([C@H](CC(N)=O)NC[C@H](N)C(N)=O)nc1C(=O)N[C@H](C(=O)N[C@H](C)[C@@H](O)[C@H](C)C(=O)N[C@H](C(=O)NCCc1nc(-c2nc(C(=O)NCCC[S+](C)C)cs2)cs1)[C@@H](C)O)C(OC1OC(CO)C(O)C(O)C1OC1OC(CO)C(O)C(OC(N)=O)C1O)c1c[nH]cn1` (stereo not given in full), the GI50 in test [1] is 12 µM (inactive); in test [2], 0.161 µM (active); in test [3] it was 0.716 µM (active); in test [4] it was 15.8 µM (inactive); in test [5], 0.222 µM (active); in [6] it was 8.18 µM (inactive). Also, the GI50 in test [7] is 15.6 µM (inactive); in test [8], 0.0379 µM (active); in test [9], 0.415 µM (active); in test [10] it was 19.6 µM (inactive); in test [11] it was 2.35 µM (inactive); in test [12] it was 3.24 µM (inactive). In addition, the GI50 is 3.96 µM (inactive) in test [13]; 13.7 µM (inactive) in [14]; 0.0644 µM (active) in test [15]; 0.984 µM (active) in test [16]; 14.8 µM (inactive) in test [17]; 2.45 µM (inactive) in [18]. In addition, the GI50 was 9.62 µM (inactive) in [19] and 1.28 µM (inactive) in test [20].
With `COc1ccccc1NC(=S)NN=C(C)c1cccc(C(C)=NNC(=S)Nc2ccccc2OC)n1`, the GI50 is 25.8 µM (inactive) in [1]; 31.8 µM (inactive) in [2]; 29.2 µM (inactive) in test [3]; 5.16 µM (inactive) in [4]; 28.4 µM (inactive) in test [5]; 7.73 µM (inactive) in [6]. The GI50 in [7] was 26.1 µM (inactive); in [8], 82.2 µM (inactive); in test [9] it was 2.95 µM (inactive); in test [10], 23 µM (inactive); in [11], > 100 µM (inactive); in test [12] it was 29.1 µM (inactive). In addition, the GI50 in [13] is 77.4 µM (inactive); in test [14], 44.9 µM (inactive); in test [15] it was 24 µM (inactive); in test [16] it was 30 µM (inactive); in test [17], 70.5 µM (inactive); in test [18] it was 29.1 µM (inactive). The GI50 in [19] is > 100 µM (inactive); in [20] it was 3.54 µM (inactive).
For `CN(C)C(=S)N/N=C\C(=N/NC(=S)N(C)C)c1ccccc1`, the GI50 in test [1] was > 23.4 µM (inactive); in test [2], 9.02 µM (inactive); in test [3], 5.31 µM (inactive); in [4], 19.3 µM (inactive); in test [5], 4.61 µM (inactive); in [6], 4.53 µM (inactive). The GI50 in test [7] is 15 µM (inactive); in test [8] it was 7.24 µM (inactive); in test [9] it was 3.52 µM (inactive); in test [10], 34.9 µM (inactive); in test [11], > 30.9 µM (inactive); in [12] it was 7.21 µM (inactive). For the same compound, the GI50 in test [13] is 17 µM (inactive); in test [14], 3.96 µM (inactive); in test [15], 1.36 µM (inactive); in test [16], 6.24 µM (inactive); in [17] it was > 61.8 µM (inactive); in test [18] it was 4.03 µM (inactive). The values for the GI50 in [19] and in [20] were 7.53 µM (inactive) and > 100 µM (inactive), respectively.
On to `Cc1cccc(C)c1NC(=O)C(=O)CC(=O)c1sc(Nc2c(C)cccc2C)nc1C`, for which the GI50 in [1], in test [2], in test [3], in test [4], in test [5] and in [6] was > 100 µM (inactive) in each case. Moreover, the GI50 in [7] is > 100 µM (inactive); in [8], > 100 µM (inactive); in test [9], > 100 µM (inactive); in test [10], > 100 µM (inactive); in [11] it was > 100 µM (inactive); in test [12], 86.7 µM (inactive). Further, the GI50 in test [13], in test [14], in test [15], in test [16], in [17] and in test [18] was > 100 µM (inactive) in each case. In addition, the GI50 in test [19] and in [20] was > 100 µM (inactive) each time.
For `CCCCCCCCP(=O)(O)OP(=O)(O)OCC1OC(n2ccc(N)nc2=O)C(O)C1O` (stereo not given), the GI50 in test [1], in [2], in [3], in test [4], in [5] and in test [6] was > 100 µM (inactive) each time. For the same compound, the GI50 in test [7], in test [8], in test [9], in test [10], in [11] and in [12] was > 100 µM (inactive) each time. For the same compound, the GI50 in [13], in test [14], in [15], in [16], in test [17] and in test [18] was > 100 µM (inactive) throughout. Moreover, the GI50 in [19] and in test [20] was > 100 µM (inactive) in each case.
Consider `Oc1cccc(-c2nc3cc(F)ccc3s2)c1`, for which the GI50 is 13.9 µM (inactive) in [1]; 15.6 µM (inactive) in test [2]; 23.6 µM (inactive) in test [3]; 15.9 µM (inactive) in [4]; 9.46 µM (inactive) in test [5]; 22 µM (inactive) in [6]. Moreover, the GI50 was 11.9 µM (inactive) in test [7]; 15.1 µM (inactive) in test [8]; 21.3 µM (inactive) in test [9]; 23.9 µM (inactive) in test [10]; 21.4 µM (inactive) in [11]; 1.11 µM (active) in [12]. The GI50 in test [13] is 24.4 µM (inactive); in test [14], 19.8 µM (inactive); in [15], 18.6 µM (inactive); in test [16], 23.4 µM (inactive); in test [17], 19.4 µM (inactive); in [18], 1.6 µM (inactive). Further, the GI50 in test [19] is 9.02 µM (inactive); in test [20], 20.5 µM (inactive).
As for `COc1cc2c[n+](C)c3c4cc5c(cc4ccc3c2cc1OC)OCO5` [NITIDINE CHLORIDE], the GI50 in test [1] is 26.1 µM (inactive); in test [2] it was 3.97 µM (inactive); in [3] it was 0.18 µM (active); in test [4], 2.62 µM (inactive); in test [5], 3.61 µM (inactive); in test [6], 1.14 µM (inactive). The GI50 in test [7] was 2.07 µM (inactive); in test [8], 2.37 µM (inactive); in test [9] it was 5.96 µM (inactive); in test [10], > 100 µM (inactive); in test [11], 1.24 µM (inactive); in test [12], 1.09 µM (active). Also, the GI50 in [13] is 0.698 µM (active); in [14], 2.68 µM (inactive); in test [15], 1.73 µM (inactive); in test [16] it was 0.447 µM (active); in test [17] it was 64 µM (inactive); in [18], 1.14 µM (inactive). Further, the GI50 was 2.07 µM (inactive) in test [19] and 0.411 µM (active) in test [20].

The record behind these values is ChEMBL document CHEMBL1201862, “PubChem BioAssay data set” (2004).
